The conditions of the data set: pH 6.5.

SMILES strings stand for the structures.

This note sets out measurements from patent US5763405A, “Stabilized composition for oral administration of peptides” (Ferring B.V., priority 1994, dated 1998).

Description: A tube was introduced intranasally after local anaesthesia with xylocaine, and gastric juice was collected. Thereafter one standardized meal was given 1 h before sampling of duodenal and distal jejunum juice and another the next morning before the collection of distal ileal juice. After centrifugation the gastric and intestinal juices were frozen in aliquots of 1 ml and stored at -20° C. Degradation method. The peptide or peptide analog (10 μl of 10 mM peptide in 0.9% aqueous NaCl) was added to 190 μl of undiluted juice at 370° C. Aliquots of 25 μl were withdrawn at intervals and mixed with 100 μl acetone to stop the reaction. After centrifugation for 10 min at 10,000 g, 10 μl of the supernatiant was analyzed by reversed phase HPLC. Determination of peptide degradation. Analysis was carried out in a Varian 5000 HPLC analyzer equipped with a UV-detector (220 nm). Column Bondapak TM C18 (3.9×300 mm), eluant MeOH/0.025M NH4 Ac (isocratic conditions), flow rate 1 ml/min. Protein and pH determination. Protein: Bio-Rad protein assay. pH: Orion model SA720; pH-paper Merck (Darmstadt), range 4.0-7.0.

For the molecule `NC(=O)CC[C@@H]1NC(=O)[C@H](Cc2ccccc2)NC(=O)[C@H](Cc2ccc(O)cc2)NC(=O)CCSSC[C@@H](C(=O)N2CCC[C@H]2C(=O)N[C@H](CCCN=C(N)N)C(=O)NCC(N)=O)NC(=O)[C@H](CC(N)=O)NC1=O` [DDAVP, Mpa--Tyr--Phe--Gln--Asn--Cys--Pro--D--Arg--Gly--GlyNH2 (SEQ ID NO: 3)], the “DDAVP degraded (to about 50%)” value is “about 50%”.
